Read-outs that look alike come from different tables or passages of the source.

Holding throughout (assay): Glasshouse assay for herbicidal activity (pre- and post-emergence), percentage phytotoxicity
Holding throughout (format): in vivo

For one assay, the system named is Avena fatua (AVEFA). The following applies: Avena fatua. An outline of the steps:
(§1)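 Pot-grown, standard soil. PRE: spray 1 d post-sowing; POST: ~12 d. Glasshouse 24/18 °C (warm spp.) / 20/16 °C (cool spp.), 16 h light, 65% RH, watered 2×/day. Visual % damage, 20 DAA PRE, 15 DAA POST.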

A further assay relates to Lolium perenne (LOLPE). The following applies: Lolium perenne. An outline of the steps:
as §1

For assay [1], the system named is Echinochloa crus-galli (ECHCG). To be noted: Echinochloa crus-galli. An outline of the steps: as §1
Assay [2] deals with Alopecurus myosuroides (ALOMY). To be noted: Alopecurus myosuroides. An outline of the steps:
as §1

Where [3] appears, read: post-emergence, 360 h, Rate 250 g/ha, post-emergence, assessed visually 15 DAA, 100%=total damage, 0%=no damage, read-out: Post-emergence herbicidal activity (percentage phytotoxicity) AVEFA POST.
The mark [4] stands for this setting: pre-emergence, 480 h, Rate 250 g/ha, pre-emergence, assessed visually 20 DAA, 100%=total damage, 0%=no damage, read-out: Pre-emergence herbicidal activity (percentage phytotoxicity) AVEFA PRE.
Where [5] appears, read: post-emergence, 360 h, Rate 250 g/ha, post-emergence, assessed visually 15 DAA, 100%=total damage, 0%=no damage, read-out: Post-emergence herbicidal activity (percentage phytotoxicity) LOLPE POST.
Setting [6] is: pre-emergence, 480 h, Rate 250 g/ha, pre-emergence, assessed visually 20 DAA, 100%=total damage, 0%=no damage, read-out: Pre-emergence herbicidal activity (percentage phytotoxicity) LOLPE PRE.
Where [7] appears, read: post-emergence, 360 h, Rate 250 g/ha, post-emergence, assessed visually 15 DAA, 100%=total damage, 0%=no damage, read-out: Post-emergence herbicidal activity (percentage phytotoxicity) ECHCG POST.
Where [8] appears, read: pre-emergence, 480 h, Rate 250 g/ha, pre-emergence, assessed visually 20 DAA, 100%=total damage, 0%=no damage, read-out: Pre-emergence herbicidal activity (percentage phytotoxicity) ECHCG PRE.
The mark [9] stands for this setting: post-emergence, 360 h, Rate 250 g/ha, post-emergence, assessed visually 15 DAA, 100%=total damage, 0%=no damage, read-out: Post-emergence herbicidal activity (percentage phytotoxicity) ALOMY POST.
Setting [10] is: pre-emergence, 480 h, Rate 250 g/ha, pre-emergence, assessed visually 20 DAA, 100%=total damage, 0%=no damage, read-out: Pre-emergence herbicidal activity (percentage phytotoxicity) ALOMY PRE.
The mark [11] stands for this setting: post-emergence, 360 h, 250 g/ha, post-emergence, 15 DAA, visual assessment (100%=total damage, 0%=no damage), read-out: Post-emergence herbicidal activity (percentage phytotoxicity) AVEFA POST.
[12] abbreviates: pre-emergence, 480 h, 250 g/ha, pre-emergence, 20 DAA, visual assessment (100%=total damage, 0%=no damage), read-out: Pre-emergence herbicidal activity (percentage phytotoxicity) AVEFA PRE.
The mark [13] stands for this setting: post-emergence, 360 h, 250 g/ha, post-emergence, 15 DAA, visual assessment (100%=total damage, 0%=no damage), read-out: Post-emergence herbicidal activity (percentage phytotoxicity) LOLPE POST.
[14] abbreviates: pre-emergence, 480 h, 250 g/ha, pre-emergence, 20 DAA, visual assessment (100%=total damage, 0%=no damage), read-out: Pre-emergence herbicidal activity (percentage phytotoxicity) LOLPE PRE.
Setting [15] is: post-emergence, 360 h, 250 g/ha, post-emergence, 15 DAA, visual assessment (100%=total damage, 0%=no damage), read-out: Post-emergence herbicidal activity (percentage phytotoxicity) ECHCG POST.
Setting [16] is: pre-emergence, 480 h, 250 g/ha, pre-emergence, 20 DAA, visual assessment (100%=total damage, 0%=no damage), read-out: Pre-emergence herbicidal activity (percentage phytotoxicity) ECHCG PRE.
Setting [17] is: post-emergence, 360 h, 250 g/ha, post-emergence, 15 DAA, visual assessment (100%=total damage, 0%=no damage), read-out: Post-emergence herbicidal activity (percentage phytotoxicity) ALOMY POST.
Where [18] appears, read: pre-emergence, 480 h, 250 g/ha, pre-emergence, 20 DAA, visual assessment (100%=total damage, 0%=no damage), read-out: Pre-emergence herbicidal activity (percentage phytotoxicity) ALOMY PRE.
The mark [19] stands for this setting: post-emergence, 360 h, POST-emergence, rate 250 g/ha, visual score 15 DAA (100%=total damage, 0%=no damage), read-out: Post-emergence herbicidal activity (percentage phytotoxicity) AVEFA POST.
The mark [20] stands for this setting: pre-emergence, 480 h, PRE-emergence, rate 250 g/ha, visual score 20 DAA (100%=total damage, 0%=no damage), read-out: Pre-emergence herbicidal activity (percentage phytotoxicity) AVEFA PRE.
[21] abbreviates: post-emergence, 360 h, POST-emergence, rate 250 g/ha, visual score 15 DAA (100%=total damage, 0%=no damage), read-out: Post-emergence herbicidal activity (percentage phytotoxicity) LOLPE POST.
The mark [22] stands for this setting: pre-emergence, 480 h, PRE-emergence, rate 250 g/ha, visual score 20 DAA (100%=total damage, 0%=no damage), read-out: Pre-emergence herbicidal activity (percentage phytotoxicity) LOLPE PRE.
[23] abbreviates: post-emergence, 360 h, POST-emergence, rate 250 g/ha, visual score 15 DAA (100%=total damage, 0%=no damage), read-out: Post-emergence herbicidal activity (percentage phytotoxicity) ECHCG POST.
The mark [24] stands for this setting: pre-emergence, 480 h, PRE-emergence, rate 250 g/ha, visual score 20 DAA (100%=total damage, 0%=no damage), read-out: Pre-emergence herbicidal activity (percentage phytotoxicity) ECHCG PRE.
Setting [25] is: post-emergence, 360 h, POST-emergence, rate 250 g/ha, visual score 15 DAA (100%=total damage, 0%=no damage), read-out: Post-emergence herbicidal activity (percentage phytotoxicity) ALOMY POST.
Where [26] appears, read: pre-emergence, 480 h, PRE-emergence, rate 250 g/ha, visual score 20 DAA (100%=total damage, 0%=no damage), read-out: Pre-emergence herbicidal activity (percentage phytotoxicity) ALOMY PRE.

Turning to `Cc1cc(C)c(C2C(=O)CC(CC(=O)NCc3cccc(Cl)c3)C2=O)c(C)c1` (stereo not drawn) [Compound A96], the pest or weed control at 250 g/ha with Avena fatua (AVEFA) (setting [3]) was determined as 80%; in the assay with Avena fatua (AVEFA) (setting [4]), 70%; with Lolium perenne (LOLPE) (setting [5]), 100%; in the assay on Lolium perenne (LOLPE) (setting [6]), 100%; in assay [1] (setting [7]), 80%; in assay [1] (setting [8]), 100%. Moreover, the results for the pest or weed control at 250 g/ha in assay [2] (setting [9]) and in assay [2] (setting [10]) were 80% and 100%, respectively.
In the case of `Cc1cc(-c2ncc(F)cn2)cc(C)c1C1C(=O)CC(CC(N)=O)C1=O` (stereo not drawn) [Compound B107], the pest or weed control at 250 g/ha in the assay on Avena fatua (AVEFA) (setting [11]) came out at 90%; in the assay on Avena fatua (AVEFA) (setting [12]), 10%; with Lolium perenne (LOLPE) (setting [13]) it was 80%; with Lolium perenne (LOLPE) (setting [14]) it was 20%; in assay [1] (setting [15]), 80%; in assay [1] (setting [16]) it was 60%. The pest or weed control at 250 g/ha in assay [2] (setting [17]) was 80%; in assay [2] (setting [18]), 60%.
In the case of `Cc1cc(C)c(C2C(=O)CC(CC(=O)NC3CCc4ccccc43)C2=O)c(C)c1` (stereo not drawn) [Compound A106], the pest or weed control at 250 g/ha came to 0% in the assay with Avena fatua (AVEFA) (setting [3]); 0% in the assay on Avena fatua (AVEFA) (setting [4]); 70% in the assay on Lolium perenne (LOLPE) (setting [5]); 70% in the assay on Lolium perenne (LOLPE) (setting [6]); 20% in assay [1] (setting [7]); 20% in assay [1] (setting [8]). Moreover, the pest or weed control at 250 g/ha in assay [2] (setting [9]) amounted to 30%; in assay [2] (setting [10]) it was 0%.
Take `Cc1cc(OCC(F)(F)F)cc(C)c1C1C(=O)CC(CC(=O)NCc2cccc(F)c2)C1=O` (stereo not drawn) [Compound B205]: the pest or weed control at 250 g/ha was found to be 90% in the assay on Avena fatua (AVEFA) (setting [19]); 80% with Avena fatua (AVEFA) (setting [20]); 90% in the assay with Lolium perenne (LOLPE) (setting [21]); 90% in the assay with Lolium perenne (LOLPE) (setting [22]); 90% in assay [1] (setting [23]); 90% in assay [1] (setting [24]). Besides, the pest or weed control at 250 g/ha in assay [2] (setting [25]) and in assay [2] (setting [26]) was 100% throughout.
For `C=C(F)CNC(=O)CC1CC(=O)C(c2c(C)cc(-c3ncc(F)cn3)cc2C)C1=O` (stereo not drawn) [Compound B294], the pest or weed control at 250 g/ha (in the assay on Avena fatua (AVEFA) (setting [19]); with Avena fatua (AVEFA) (setting [20]); with Lolium perenne (LOLPE) (setting [21]); in the assay with Lolium perenne (LOLPE) (setting [22]); in assay [1] (setting [23]); in assay [1] (setting [24])) was 100% in each case. Moreover, the pest or weed control at 250 g/ha was 100% in assay [2] (setting [25]) and 90% in assay [2] (setting [26]).
As for `Cc1cc(-c2ncc(F)cc2F)cc(C)c1C1C(=O)C[C@@H](CC(=O)NC(C)(C)C)C1=O` (stereo partly drawn) [Compound B51], the pest or weed control at 250 g/ha in the assay on Avena fatua (AVEFA) (setting [11]) is 100%; with Avena fatua (AVEFA) (setting [12]), 80%; with Lolium perenne (LOLPE) (setting [13]), 100%; in the assay with Lolium perenne (LOLPE) (setting [14]), 100%; in assay [1] (setting [15]), 100%; in assay [1] (setting [16]), 100%. Also, the pest or weed control at 250 g/ha was 100% in assay [2] (setting [17]) and 90% in assay [2] (setting [18]).
With `C/C=C/c1cc(C)c(C2C(=O)CC(CC(=O)N3CCOCC3)C2=O)c(CC)c1` (stereo not drawn) [Compound B137], the pest or weed control at 250 g/ha with Avena fatua (AVEFA) (setting [11]) turned out to be 100%; in the assay with Avena fatua (AVEFA) (setting [12]) it was 50%; in the assay with Lolium perenne (LOLPE) (setting [13]), 100%; in the assay with Lolium perenne (LOLPE) (setting [14]), 50%; in assay [1] (setting [15]), 90%; in assay [1] (setting [16]), 60%. The pest or weed control at 250 g/ha came to 100% in assay [2] (setting [17]) and 20% in assay [2] (setting [18]).
As to `Cc1cc(C)c(C2C(=O)CC(CC(=O)NC3CC3C(F)(F)F)C2=O)c(C)c1` (stereo not drawn) [Compound B97], the pest or weed control at 250 g/ha with Avena fatua (AVEFA) (setting [11]) worked out at 50%; with Avena fatua (AVEFA) (setting [12]), 0%; in the assay on Lolium perenne (LOLPE) (setting [13]), 70%; with Lolium perenne (LOLPE) (setting [14]), 80%; in assay [1] (setting [15]) it was 80%; in assay [1] (setting [16]), 90%. Further, the pest or weed control at 250 g/ha in assay [2] (setting [17]) was determined as 70%; in assay [2] (setting [18]), 80%.
Consider `COc1ccc(NC(=O)CC2CC(=O)C(c3c(C)cc(C)cc3C)C2=O)cc1OC` (stereo not drawn) [Compound B2], for which the pest or weed control at 250 g/ha came out at 30% with Avena fatua (AVEFA) (setting [11]); 60% in the assay on Avena fatua (AVEFA) (setting [12]); 30% in the assay with Lolium perenne (LOLPE) (setting [13]); 80% in the assay on Lolium perenne (LOLPE) (setting [14]); 10% in assay [1] (setting [15]); 80% in assay [1] (setting [16]). The pest or weed control at 250 g/ha in assay [2] (setting [17]) and in assay [2] (setting [18]) was 40% in each case.
Turning to `CC#CC(C)(C)NC(=O)CC1CC(=O)C(c2c(C)cc(C)cc2C)C1=O` (stereo not drawn) [Compound B35], the pest or weed control at 250 g/ha with Avena fatua (AVEFA) (setting [11]) was found to be 70%; in the assay on Avena fatua (AVEFA) (setting [12]), 0%; in the assay with Lolium perenne (LOLPE) (setting [13]) it was 70%; with Lolium perenne (LOLPE) (setting [14]) it was 80%; in assay [1] (setting [15]), 70%; in assay [1] (setting [16]), 80%. Also, the pest or weed control at 250 g/ha in assay [2] (setting [17]) worked out at 80%; in assay [2] (setting [18]), 90%.
As for `CC#Cc1cc(C)c(C2C(=O)CC(CC(=O)NCC#N)C2=O)c(C)c1` (stereo not drawn) [Compound A78], the pest or weed control at 250 g/ha is 40% with Avena fatua (AVEFA) (setting [3]); 30% in the assay with Avena fatua (AVEFA) (setting [4]); 30% in the assay with Lolium perenne (LOLPE) (setting [5]); 20% in the assay on Lolium perenne (LOLPE) (setting [6]); 100% in assay [1] (setting [7]); 60% in assay [1] (setting [8]). Further, the results for the pest or weed control at 250 g/ha in assay [2] (setting [9]) and in assay [2] (setting [10]) were 80% and 10%, respectively.
`Cc1cc(-c2ncc(F)cc2C#N)cc(C)c1C1C(=O)CC(CC(=O)NC(C)(C)C)C1=O` (stereo not drawn) [Compound B87]: the pest or weed control at 250 g/ha stood at 30% with Avena fatua (AVEFA) (setting [11]); 10% with Avena fatua (AVEFA) (setting [12]); 80% in the assay on Lolium perenne (LOLPE) (setting [13]); 70% in the assay on Lolium perenne (LOLPE) (setting [14]); 80% in assay [1] (setting [15]); 20% in assay [1] (setting [16]). For the same compound, the values for the pest or weed control at 250 g/ha in assay [2] (setting [17]) and in assay [2] (setting [18]) were 70% and 40%, respectively.

For the origin of these results see patent publication US10206394B2, “Herbicidal compounds” (Syngenta Participations AG, priority 2014, dated 2019).
